Assays:
HT1080 cells [1] = test: Pericellular proteolysis (gelatinolysis) of HT1080 cells; format: cell-based, human; details: HT1080, 48 h, PDBu, fibronectin/FITC-labelled gelatin coating
Protocol: Pericellular proteolysis. Microtiter wells were coated with a mixture of fibronectin (10 μg/ml) and FITC-labelled gelatin (100 μg/ml) followed by saturation with 1% BSA in PBS. HT1080 cells (50 000 in 100 μl 0.1% BSA/DMEM) were incubated in the presence of 20 nM PDBu (4β-phorbol-12,13-dibutyrate, SigmaAldrich) and the peptides or the MMP-2/MMP-9 selective inhibitor InhI (Calbiochem). As a control non-activated cells and medium without the cells were used. Gelatinolysis after 48 hours was measured as the increase of fluorescence from a 50 μl aliquot of the conditioned medium using Wallac Victor^2 reader.

HT1080 cells [2] = test: HT1080 cell adhesion to vitronectin or fibronectin; format: cell-based, human; details: proteins 40 μg/ml, CRV peptide 200 μM
Protocol: Cell adhesion. HT1080 cells were allowed to adhere on vitronectin or fibronectin (2 μg/ml) in the presence or absence of peptides (200 μM), proteins (40 μg/ml) or a monoclonal anti-αvβ5 integrin antibody P1F6 (Chemicon) or a control antibody (25 μg/ml). The adhesion was quantified as described (14). Adhesion of THP-1 cells to immobilized KIM127 or control monoclonal antibodies (2 μg/ml) was done in the presence or absence of soluble proteins (50 μg/ml) or antibodies (25 μg/ml).

pro-MMP-2 = test: Pro-MMP-2 activation in HT1080 cells, zymography; format: cell-based, human; details: PDBu-activated HT1080, peptides 200 μM
Protocol: (§1) Activation of MMP-9. THP-1 cells (40 000/100 μl) or confluent HT1080 cells were incubated for 16 h in the presence or absence of 2.5 μg/ml plasminogen, 0.5 μg/ml pro-MMP-3 (Oncogene Research Products), 40 nM PDBu, and the peptides at a 200 μM concentration unless otherwise indicated. Aliquots of the conditioned media were analyzed by gelatin zymography (9). […] The samples were analyzed by gelatin zymography.

THP-1 monocytic cells = test: THP-1 cell migration on GST-LLG-C4; format: cell-based, human; details: GST-LLG-C4 substratum, 16 h
Protocol: Cell migration and invasion. The cell migration assay was conducted using transwell migration chambers (8 μm pore size, Costar) in 10% serum-containing medium (2,14). Briefly, the membranes were coated on both sides with 40 μg/ml GST or with the β2 integrin ligand peptide […]-GST fusion (GST-LLG-C4) and blocked with complete medium. THP-1 cells (50 000/100 μl) were preincubated with the peptides for 1 h in serum-containing medium. The cells were allowed to migrate for 16 h and were then stained with crystal violet and counted (14). The HT1080 (20 000 cells/I100 μl) invasion assay was performed as the THP-1 migration, except that matrigel coated transwells (BD Biosciences) were used.

αM integrin I domain = αM integrin I domain (Homo sapiens, UniProt P11215); test: Pro-MMP-9 binding to αM integrin I domain
Chain of αM integrin I domain (P11215 150-328 limits assumed): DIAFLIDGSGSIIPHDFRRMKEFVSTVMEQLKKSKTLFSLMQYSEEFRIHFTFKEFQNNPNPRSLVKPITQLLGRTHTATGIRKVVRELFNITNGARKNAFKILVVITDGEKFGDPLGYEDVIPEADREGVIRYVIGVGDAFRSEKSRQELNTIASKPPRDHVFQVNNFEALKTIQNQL
Protocol: Pro-MMP-9 and gelatin binding to leukocyte αM integrin. Pro-MMP-9 binding to the αM I domain in the presence of peptides was studied as described (12). Gelatin binding to the pro-MMP-^9/αMβ2 integrin complex was studied by immobilizing the integrin αMβ2 (12) or αIIbβ3 as a control (Enzyme Research Laboratories, South Bend, Ind.) (1 μg/well) in TBS/1 mM CaCl2/1 mM MgCl2 followed by saturation of the wells with 1% BSA in PB ST. Pro-MMP-9 (100 ng/well) was incubated for 2 h and the unbound pro-MMP-9 was washed away. Biotinylated gelatin (2.5 μg/ml) was allowed to bind for 30 min at room temperature. Bound gelatin was detected with streptavidin-peroxidase.

pro-MMP-9 [3] = biological target: T1, pro-MMP-9 (Homo sapiens, UniProt P14780); test: Phage binding to pro-MMP-9 with competitors; details: competitor peptides 20 μM, gelatin 2.5 μg/ml
T1 sequence (P14780 20-707 limits assumed): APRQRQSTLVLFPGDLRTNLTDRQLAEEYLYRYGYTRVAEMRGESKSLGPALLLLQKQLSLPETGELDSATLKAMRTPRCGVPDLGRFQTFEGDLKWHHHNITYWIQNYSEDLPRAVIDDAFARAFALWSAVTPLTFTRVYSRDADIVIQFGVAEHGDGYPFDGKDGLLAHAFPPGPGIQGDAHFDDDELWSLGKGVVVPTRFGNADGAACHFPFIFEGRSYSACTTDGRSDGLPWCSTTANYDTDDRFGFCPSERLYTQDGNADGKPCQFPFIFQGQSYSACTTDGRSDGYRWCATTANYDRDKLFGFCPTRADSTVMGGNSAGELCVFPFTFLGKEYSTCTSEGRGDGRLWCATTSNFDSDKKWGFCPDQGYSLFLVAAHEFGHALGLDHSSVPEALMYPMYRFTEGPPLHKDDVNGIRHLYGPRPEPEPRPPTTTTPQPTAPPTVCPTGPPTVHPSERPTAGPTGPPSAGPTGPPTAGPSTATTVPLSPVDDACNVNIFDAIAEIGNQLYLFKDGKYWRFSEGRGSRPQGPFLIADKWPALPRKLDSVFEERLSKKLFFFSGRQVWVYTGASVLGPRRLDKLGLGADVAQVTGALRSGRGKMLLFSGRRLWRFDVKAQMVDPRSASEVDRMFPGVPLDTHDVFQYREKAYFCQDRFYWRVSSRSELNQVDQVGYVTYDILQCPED
Protocol: Phage display. Phage display selections were made using random peptide libraries CX7-10C and X9-10 (13). Purified human pro-MMP-9 (9) or recombinant MMP-9 C domain (2 μg/ml) was immobilized on microtiter wells and the wells were blocked with BSA. The phage were added in 50 mM Hepes (pH 7.5)/5 mM CaCl2/1 μM ZnCl2/150 mM NaCl/2% BSA. After three rounds of selection the phage sequences were determined (14). The phage binding specificity was tested with pro-MMPs or the recombinant domains (20 ng/well). The phage (10^8 transducing units/well) were allowed to bind in the absence or presence of competitor peptides (20 μM), gelatin (2.5 μg/ml) or TIMP-1 (2.5 μg/ml, Calbiochem) followed by washings with PBS/0.05% Tween20 (PBST). The phage were detected with a peroxidase-conjugated anti-phage antibody (Amersham Biosciences).

[4] = biological target: T2, aminophenylmercuric acetate (APMA)-activated MMP-2 (Homo sapiens, UniProt P08253); test: Gelatinase inhibition assay (gelatin degradation), MMP-2; format: biochemical; details: biotinylated gelatin substrate
T2 sequence (P08253 110-660): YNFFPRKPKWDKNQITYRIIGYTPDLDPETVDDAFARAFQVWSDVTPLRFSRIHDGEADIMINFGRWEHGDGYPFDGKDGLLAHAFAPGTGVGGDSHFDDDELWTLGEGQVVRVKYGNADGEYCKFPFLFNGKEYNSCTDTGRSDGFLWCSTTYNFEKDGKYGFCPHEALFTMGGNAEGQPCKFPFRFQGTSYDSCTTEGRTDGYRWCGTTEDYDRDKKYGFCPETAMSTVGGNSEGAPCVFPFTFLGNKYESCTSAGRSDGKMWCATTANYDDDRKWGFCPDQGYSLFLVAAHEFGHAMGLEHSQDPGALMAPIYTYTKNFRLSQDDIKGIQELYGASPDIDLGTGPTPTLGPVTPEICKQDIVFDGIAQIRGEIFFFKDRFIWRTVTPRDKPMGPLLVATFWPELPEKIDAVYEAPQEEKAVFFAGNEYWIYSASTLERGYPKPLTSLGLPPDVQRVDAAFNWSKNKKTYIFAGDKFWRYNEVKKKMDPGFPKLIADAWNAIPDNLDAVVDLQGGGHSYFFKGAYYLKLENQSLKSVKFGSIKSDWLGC
Protocol: Gelatinase inhibition assay. Inhibition of aminophenylmercuric acetate (APMA)-activated MMP-2 and trypsin-activated MMP-9 was performed using biotinylated gelatin as a substrate (15).

pro-MMP-9 [5] = biological target: T1, pro-MMP-9; test: Pro-MMP-9 activation in THP-1 cells, zymography; format: cell-based; details: THP-1, pro-MMP-3 and plasminogen, peptides 200 μM
Protocol: as §1

[6] = system: HSC-3 tongue squamous cell carcinoma xenografts; test: Tumor growth in vivo, HSC-3 xenografts
Protocol: Tumor growth in vivo. […] HSC-3 tumors were established by administering 5×10^6 tumor cells in a 100 μl volume in PBS in both flanks of the Hsd:Athymic Nude-nu mice. After three days, the mice received five daily injection of 0.8 mg/ml CRV or the scrambled peptide or the vehicle (PBS) via the tail vein in a 200 μl volume. Three-dimensional caliper measurements were taken twice a week and the tumor volumes calculated. Mice were sacrificed when the tumor volume reached 1000 mm^3. For the staining of the tumor vasculature, 7 μm frozen tissue sections were stained with anti-CD31 antibody (MEC 13.3, BD Biosciences) and anti-rat Alexa Fluor 488 antibodies.

CRVYGPYLLC
Inhibition of pericellular gelatinolysis (HT1080 cells [1]): inhibited | Inhibition of HT1080 cell adhesion to vitronectin or fibronectin (HT1080 cells [2]): Neither | Inhibition of activation of pro-MMP-2 (pro-MMP-2): partially | Inhibition of THP-1 migration (THP-1 monocytic cells): inhibitory effect | Effect on interaction of MMP-9 with the leukocyte αM integrin I domain (αM integrin I domain): do not affect | Binding of PPC peptide-bearing phage to pro-MMP-9, competition (pro-MMP-9 [3]): not | Binding of the CRV-phage to pro-MMP-9, competition (pro-MMP-9 [3]; TIMP-1 2.5 μg/ml): inhibited | Inhibition of MMP-2 activity in gelatin degradation assay [4]: did not inhibit | Effect on pro-MMP-9 activation (pro-MMP-9 [5]): blocked | Survival of the mice ([6]; after two months): all five CRV-injected mice were alive | Inhibition of tumor growth ([6]; at 31 days, five daily i.v. injections, vs scrambled peptide or PBS): statistically significant inhibition of tumor growth | Kaplan-Meier survival, Log-Rank test p vs. PBS ([6]; mouse, in vivo): 0.002 | Kaplan-Meier survival, Log-Rank test p vs. scrambled CRV ([6]; mouse, in vivo): 0.003 | Tumor vasculature, CD31 immunostaining ([6]; mouse, in vivo): less developed tumor vasculature

From patent US20070207967A1, “Peptide Inhibitors of Matrix Metalloproteinase Activity” (CTT CANCER TARGETING TECHNOLOGIES OY, priority 2004, published 2007)
